According to patent publication US20040057908A1, “Oral compositions and use thereof” (priority 2003, published 2004):
In brackets after ≈: the same amount, converted by molar mass. Several values for one entry are separate records, joined by “and”; a condition that tells them apart may be missing. Equal values may be shown once. Read-outs that look alike come from different tables or passages of the source. Marks after values point to notes of the source that are not given here.

How the values were obtained:
[1] = system: Streptococcus sobrinus 6715; assay: Rat caries experiment: S. sobrinus recovered from the jaws; assay type: in vivo, Sprague Dawley rats; settings: rats, topical twice daily, five weeks; 1.33 mM (fluoride 250 ppm); means (SD)
Method: (§1) Seven litters of ten female Sprague Dawley rats aged 14 days were purchased with their dams from Charles River (Kingston, N.Y., USA). […] The experiment proceeded for five weeks, at which time the animals were killed by CO2 asphyxiation. The lower left jaw was aseptically dissected, suspended in 5.0 mL of sterile saline solution, and sonicated (three 10-second pulses with 5-second intervals at 30 watts, Branson Sonifier 450). The suspension was plated on mitis salivarius agar plus streptomycin to estimate S. sobrinus population and on blood agar to determine total cultivable flora (TCF). […] The determination of caries score was blind by codification of the jaws and was done by 1 calibrated examiner. […] The level of significance was 5%.

streptococcal GTFs [2] = system: T1, streptococcal GTFs; assay: GTF activity in solution, all GTFs (B, C, D, Ss) stated together; assay type: biochemical, Streptococcus mutans, S. sanguinis; settings: for inhibitory effects on the activities of GTFs (in words): 1.33 mM (fluoride 250 ppm), solution and sHA surface
T1 construct: Streptococcus milleri KSB8, which harbors the gtfB gene from S. mutans GS-5 (for GTF B production)
Method: The GTF enzyme added to each sample for all assays was equivalent to the amount required to incorporate 1.0-1.5 μmol of glucose over the four hours reaction (1.0-1.5 units).
The samples were incubated 37° C. with rocking for 4 h.
For this assay, a one-way layout experimental design was used in 4×2×7 factorial scheme (enzyme×state×dose). An analysis of variance was carried out and qualitative treatments were compared using Tukey test at level of 5% of significance (p<0.05). A non-linear regression was applied in order to evaluate effects of different concentrations.

[3] = system: S. mutans UA159 and S. sobrinus 6715 biofilms; assay: Time-kill assay in 5-day-old biofilms; assay type: cell-based; settings: for antibacterial activity against mutans streptococci biofilms (in words): 1.33 mM (fluoride 250 ppm); for decrease in viable counts of biofilms: 1.33 mM, after 2-4 h incubation
Method: Cells of mutans streptococci were grown in tryptone-yeast extract broth with addition of 1% (w/v) sucrose at 37° C. and 5% CO2. […] The killing assays were performed according to Phan et al. (2000). […] The homogenized suspension was serially diluted (10^1 to 10^4) and plated on tryptic soy agar or blood agar by means of a spiral plater (Autoplate model 3000, Spiral Biotech, Inc., Bethesda, Md). […] Killing curves were constructed by plotting log10 CFU/ml versus time over 4 h. All the assays were carried out in quadruplicate on at least 3 different occasions. Bactericidal effect was defined as a ≧3 log10 decreases in the CFU/ml from initial viable counts, at time zero. The potential for drug carry-over to produce falsely low viability counts was minimized by dilution of inocula and plating of small volumes of diluted samples (50 μl).

dental caries = assay: Rat caries experiment: caries scores (Larson's modification of Keyes' system); assay type: in vivo, Sprague Dawley rats; settings: for smooth-surface caries severity scores versus control (in words): Ds and Dm levels, tt-farnesol Dm only; for smooth-surface caries severity scores versus control (in words) / reduction of the incidence of smooth surface caries compared to control / incidence and severity of sulcal-surface caries (in words): p<0.05; for smooth surface caries, Keyes's score / reduction of the incidence of smooth surface caries compared to control / incidence and severity of sulcal-surface caries (in words): rats; for smooth surface caries, Keyes's score / reduction of the incidence of smooth surface caries compared to control: topical twice daily, five weeks
Method: as §1

[4] = system: Mutans Streptococci Strains; assay: MIC and MBC, broth dilution, all strains stated together; assay type: cell-based, S. mutans (GS-5 and UA159) and S. sobrinus 6715; settings: Streptococcus mutans; for MIC: read-out: MIC
Method: (§2) The minimum inhibitory concentration (MIC) and minimum bactericidal concentration (MBC) were determined for each test compound according to the National Committee for Clinical Laboratory Standards guidelines (Tentative standard M26-T, 1992; NCCLS Publication No. M7-A5, 2000) and Koo et al. (2000b). The broth microdilution and macrodilution methods (in TSB) were used for the antibacterial tests. The starting inoculum was 5×10^5 CFU/ml and the concentrations of test compounds ranged from 15.6 to 500 μM (two-fold dilutions). The MICs and MBCs were determined in quadruplicate in at least 3 different experiments.

mutans streptococci = assay: Time-kill studies, broth macrodilution; assay type: cell-based, S. mutans GS-5 and UA159, S. sobrinus 6715
Method: For the compound with highest antibacterial activity, the time kill studies were performed by broth macrodilution method (National Committee for Clinical Laboratory Standards, Tentative standard M26-T, 1992). The starting inoculum of S. mutans GS-5 and UA159, and S. sobrinus 6715 was 1-5×10^6 CFU/ml. The final concentration of the antibacterial agent was 4 times MIC (or MBC values). Tubes containing the microorganisms and the test compound in TSB were incubated in 5% CO2 at 37° C.; samples were removed for viable counts at 0, 30 min., 1, 2, 4, 8, and 24 h. Serial dilutions (10^−1 to 10^−4) were prepared in sterile 0.9% sodium chloride solution. The diluted sample (50 μl) was plated on to tryptic soy agar by means of a spiral plater (Autoplate model 3000, Spiral Biotech, Inc., Bethesda, Md.). The plates were incubated in 5% CO2 at 37° C. for 48 h, when the number of colonies was determined. Killing curves were constructed by plotting log10 CFU/ml versus time over 24 h. All the assays were done in quadruplicate on at least 3 occasions. Bactericidal effect was defined as a ≧3 log10 decreases in the CFU/ml from the original inoculum. The potential for drug carry-over to produce falsely low viability counts was minimized by dilution of inocula and plating of small volumes of diluted samples (50 μl). In addition, no evidence of drug carry-over was detected at the lowest dilution used for plating (10^−1).

streptococcal GTFs [5] = system: T1, streptococcal GTFs; assay: GTF activity adsorbed onto sHA surface, all GTFs stated together; assay type: biochemical, Streptococcus mutans, S. sanguinis; settings: 1.33 mM
Method: Glucosyltransferase activity was measured by the incorporation of [^14C-glucose] from labeled sucrose (NEN Research Products, Boston, Mass.) into glucans (Germaine et al., 1974; Venkitaraman et al., 1995). The GTF enzyme added to each sample for all assays was equivalent to the amount required to incorporate 1.0-1.5 μmol of glucose over the four hours reaction (1.0-1.5 units).
For surface assays, the GTFs were adsorbed to hydroxyapatite beads coated with clarified whole saliva (free of GTF activity), as detailed elsewhere (Koo et al., 2000c; Schilling and Bowen, 1988, Venkitaraman et al., 1995). The saliva-coated hydroxyapatite (sHA) beads were exposed to sufficient enzyme to saturate the surface as determined experimentally. Following the adsorption of the enzyme, the beads were washed 3 times with buffer to remove the loosely bound material and exposed to 300 μl of the two-fold dilution series of test compounds (or control) for 30 min. at the same concentrations described above. The beads were washed and exposed to 300 μl [^14C-glucose]-sucrose substrate (100.0 mmol/l sucrose, final concentration). The radiolabeled glucan formed was collected and quantified by scintillation counting (Germaine et al., 1974; Venkitaraman et al., 1995). All the solution and surface assays were done in quadruplicate in at least 3 different experiments. […]

S. mutans strains = assay: MIC and MBC, broth dilution, S. mutans strains stated together; assay type: cell-based, S. mutans (GS-5 and UA159)
Method: as §2

streptococci = assay: Membrane disruption seen in the phase-contrast microscope; assay type: cell-based
[6] = system: Streptococcus sobrinus 6715; assay: MIC and MBC, broth dilution; assay type: cell-based
Method: as §2

[7] = system: Streptococcus mutans GS-5; assay: MIC and MBC, broth dilution; assay type: cell-based
Method: as §2

[8] = system: Streptococcus mutans UA 159; assay: MIC and MBC, broth dilution; assay type: cell-based
Method: as §2

biofilms = assay: Formation of biofilms (continued research); assay type: cell-based

SMILES: [F-].[Na+] [Fluoride, sodium fluoride]
- Infection by S. sobrinus, % [1]: 39.8 (13.2)^ab %
- inhibitory effects on the activities of GTFs (in words) (streptococcal GTFs [2]): devoid of detectable antimicrobial and anti-GTF activity
- inhibitory effects on the activities of GTFs (in words) (streptococcal GTFs [2]; listed as fluoride): either negligible or moderate inhibitory effects
- antibacterial activity against mutans streptococci biofilms (in words) [3]: devoid of detectable antimicrobial and anti-GTF activity
- antibacterial activity against mutans streptococci biofilms (in words) ([3]; listed as fluoride): negligible antibacterial activity
- smooth-surface caries severity scores versus control (in words) (dental caries): significantly lower
- smooth surface caries, Keyes's score (dental caries): 2.3±3.0
- reduction of the incidence of smooth surface caries compared to control (dental caries): 72%
- incidence and severity of sulcal-surface caries (in words) (dental caries): reduced

SMILES: [H]/N=C(\N/C(=N/[H])NCCCCCCNC(=N)NC(=N)Nc1ccc(Cl)cc1)Nc1ccc(Cl)cc1 [Chlorhexidine, chlorhexidine, reference compound]
- Infection by S. sobrinus, % [1]: 34.1 (10.8)^b %
- MIC ([4]; all strains tested (S. mutans GS-5, UA159, S. sobrinus 6715)): 1.1 to 2.2 µM
- MIC ([4]; all strains tested): 1 to 2 µg/mL
- MBC ([4]; mutans streptococci strains): 8.9 µM and 8 µg/mL
- incubation time to bactericidal effects (mutans streptococci; 8.9 μM (MBC), mutans streptococci strains): 8 h
- inhibition of GTFs in solution (streptococcal GTFs [2]; 1.33 mM): 30-45%
- inhibitory effects on the activities of GTFs (in words) (streptococcal GTFs [2]): either negligible or moderate inhibitory effects
- antibacterial activity against mutans streptococci biofilms (in words) [3]: not bactericidal
- decrease in viable counts of biofilms [3]: 2-3 log10 CFU/ml
- smooth-surface caries severity scores versus control (in words) (dental caries): significantly lower
- smooth surface caries, Keyes's score (dental caries): 2.0±1.9
- reduction of the incidence of smooth surface caries compared to control (dental caries): 75%
- incidence and severity of sulcal-surface caries (in words) (dental caries): reduced
- inhibition of GTFs on a surface (streptococcal GTFs [5]): 10-20%

SMILES: CC(C)=CCC/C(C)=C/CC/C(C)=C/CO [tt-Farnesol]
- Infection by S. sobrinus, % [1]: 44.8 (8.2)^a %
- MBC (S. mutans strains): 500 μM and 112 μg/ml
- MIC (S. mutans strains): 125 μM and 28 μg/ml
- concentration giving visible membrane disruption of streptococci (streptococci): > 10 mM
- incubation time to bactericidal effects (≧3 log decrease in CFU/ml) (mutans streptococci; four times the MIC (or MBC), S. sobrinus 6715 and S. mutans strains): 4-8 h
- reduction of viable counts (mutans streptococci; four times the MIC (or MBC), within 30 min. to 1 h of incubation): 1 log of CFU/ml
- MBC ([6]; S. sobrinus 6715): 56 µg/mL
- MIC ([6]; S. sobrinus 6715): 14 µg/mL
- MBC ([6]; Streptococcus sobrinus 6715): 250 µM
- MIC ([6]; Streptococcus sobrinus 6715): 62.5 µM
- MBC [7]: 500 µM (≈ 111 µg/mL)
- MIC [7]: 125 µM (≈ 27.8 µg/mL)
- MBC [8]: 500 µM (≈ 111 µg/mL)
- MIC [8]: 125 µM (≈ 27.8 µg/mL)
- inhibitory effects on the activities of GTFs (in words) (streptococcal GTFs [2]): either negligible or moderate inhibitory effects
- effects on enzyme activity (GTFs) (streptococcal GTFs [2]; 1.33 mM, solution or surface not specified): 10-20%
- decrease in viable counts of biofilms [3]: 1 log10 CFU/ml
- formation of biofilms (in words) (biofilms): inhibits formation of biofilms
- smooth-surface caries severity scores versus control (in words) (dental caries): significantly lower
